How the values were obtained:
005 GSCs = test: Survival of mice intracranially implanted with 005 GSCs; assay type: in vivo, C57BL/6 mice; conditions: 005 GSCs 2×10^5 cells/mouse; BAPN 2 g/L drinking water from day 4; SR9009 100 mg/kg i.p. 10 days from day 7; anti-PD1 10 mg/kg i.p. days 11, 14, 17; radiation 2.5 Gy 4 days from day 7
Method: Mice and Intracranial Xenograft Tumor Models. Female C57BL/6 mice at 3 to 4 weeks of age were purchased from the Jackson Laboratory (#0000664). All animals were grouped by 5 mice per cage and maintained in IVC System (San Diego, CA) for a week before the experiment. All animal experiments were performed with the approval of the Institutional Animal Care and Use Committee (IACUC) at Northwestern University. The intracranial xenograft tumor models were established previously. In brief, mice were anesthetized by isoflurane through IMPAC6 Anesthesia System. Then a dental drill was used to open a small hole in the skull of mice 1.2 mm anterior and 3.0 mm lateral to the bregma. Mice were placed into the stereotactic apparatus, and 5 μL 005 GSC, CT2A, or GL261 cells in FBS-free culture medium were injected into the right caudate nucleus 3 mm below the surface of the brain using a 10 μL Hamilton syringe with an unbeveled 30-gauge needle. The incision was closed using Vetbond glue. Meloxicam (20 mg/kg, daily) was subcutaneously injected for pain relief for 3 days after surgery. […]
Statistical analysis. […] The survival analysis for animal models was determined by conducting Log-rank (Mantel-Cox) test. […]

THP-1 macrophages = test: Transwell migration assay of THP-1 macrophages with U87 conditioned media; assay type: cell-based; conditions: conditioned media from U87 cells pretreated with SR9009 5 μM
Method: Migration assay. To study the relationship between macrophages and microglia, HMC3 microglia or THP-1 macrophages were seeded into the 24-well plates (receiver wells) using serum-containing culture medium for 24 hours to reach 40-60% confluence and then stimulated with or without U87 cell CM for additional 24 hours. After that, cells were washed with PBS twice and cultured in serum-free culture medium. For upper chambers, THP-1 macrophages (2×10^5) and HMC3 microglia (5×10^4) were suspended in serum-free culture medium and seeded into […] (Corning, #3421) and […] (Corning, #3422) 24-well Transwell inserts, respectively. To study the role of GBM cells on microglia migration, HMC3 microglia (5×10^4) were suspended in serum-free culture medium and seeded into 8.0 μm inserts. SIM-A9 microglia (1×10^5) and THP-1 macrophages (1×10^5) were suspended in serum-free culture medium and seeded into 5.0 μm inserts. The CM from LOX-depleted or inhibited U87 cells, LOX-overexpressed GL261 cells, or SR9009-treated U87 cells were added to the receiver wells, respectively. After 10 hours, migrated cells were fixed with 4% PFA (ThermoFisher, #J61899.AK) for 30 minutes and stained with crystal violet (Sigma-Aldrich, #C-3886) for another 30 minutes. The membrane inserts were washed with water and imaged under an EVOS microscope. The number of transferred cells was counted using ImageJ.

Row | SMILES | survival (005 GSCs) | migration ability of THP-1 macrophages (THP-1 macrophages)
1 | N#CCCN [BAPN, β-aminopropionitrile] | extended the survival | 
2 | CCOC(=O)N1CCC(CN(Cc2ccc(Cl)cc2)Cc2ccc([N+](=O)[O-])s2)C1 (centres unmarked) [SR9009] |  | did not change

From US20250186396A1, “COMPOSITIONS AND METHODS FOR THE TREATMENT OF GLIOBLASTOMA WITH A DUAL TARGETING ANTI-TUMOR COMPOSITION” (Northwestern University, priority 2023, published 2025)
